The text below walks through data of patent US20230085307A1, “PYRIDAZINONE COMPOUND AND HERBICIDE” (NISSAN CHEMICAL CORPORATION, priority 2019, published 2023).

The test system of test [1] is barnyard grass. The test can be described thus: Test Example 3: herbicidal effect by foliage application, Wagner pot (Table 18, symbol H). Format: in vivo, barnyard grass (Echinochloa crus-galli). The procedure, abridged:
(§1)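 Plants were sown in alluvial soil held under 0.1–0.5 cm standing water and grown 14 days in a greenhouse at 25–30 °C. An emulsifiable formulation, water-diluted to the set dose, was then sprayed onto the foliage, and effects were scored three weeks later using previously defined criteria.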

For a further test, the system named is Chinese sprangletop. Briefly: Test Example 3: herbicidal effect by foliage application, Wagner pot (Table 18, symbol D). In kind it is in vivo, chinese sprangletop (Leptochloa chinensis). The method in brief:
as §1

The subject of another test is rice flat sedge. Briefly: Test Example 3: herbicidal effect by foliage application, Wagner pot (Table 18, symbol E). In kind it is in vivo, rice flat sedge (Cyperus iria). The method in brief:
as §1

The test system of test [2] is southern crabgrass. Briefly: Test Example 4: herbicidal effect by soil treatment (Table 19, symbol F). Format: in vivo, southern crabgrass (Digitaria ciliaris). The method in brief:
(§2)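 Scoring uses the grading scale of an earlier test, three weeks post-application. Treatment consists of spraying a diluted emulsion formulation across the surface of sterilized diluvial soil in which seeds are buried near 1.5 cm deep; boxes are kept in a greenhouse between 25° C. and 30° C.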

In test [3] the test system is green foxtail. The test can be described thus: Test Example 4: herbicidal effect by soil treatment (Table 19, symbol G). In kind it is in vivo, green foxtail (Setaria viridis). The method in brief:
as §2

For test [4], the system named is barnyard grass. Briefly: Test Example 4: herbicidal effect by soil treatment (Table 19, symbol H). In kind it is in vivo, barnyard grass (Echinochloa crus-galli). The method in brief:
as §2

The test system of test [5] is wild oat. Briefly: Test Example 4: herbicidal effect by soil treatment (Table 19, symbol I). In kind it is in vivo, wild oat (Avena fatua). From the text:
(§3) [Test Example 4] Herbicidal Effect Test by Soil Treatment
(§4) Sterilized diluvial soil was placed in a plastic box having a length of 21 cm, a width of 13 cm, and a depth of 7 cm. The seeds of each of southern crabgrass, green foxtail, barnyard grass, wild oat, blackgrass, Italian ryegrass, windgrass, velvetleaf, redroot pigweed, lambsquarters, chickweed, false cleavers, persian speedwell, corn, soybean, rice, wheat, beet, and rapeseed were sowed in a spot-like manner and covered with the soil having a thickness of about 1.5 cm. Subsequently, the emulsion agent of the compound of the present invention prepared according to Formulation Example 2 was diluted with water so as to achieve a predetermined herbicide amount, and the diluted emulsion agent was uniformly applied to the surface of the soil with a small-sized spray. The plastic box was placed in a greenhouse at 25° C. to 30° C. for growth of the plants. Three weeks after the herbicide application, the effect of the herbicide on each plant was evaluated according to the criteria of Test Example 1.

Test [6] deals with blackgrass. Briefly: Test Example 4: herbicidal effect by soil treatment (Table 19, symbol J). In kind it is in vivo, blackgrass (Alopecurus myosuroides). The procedure, abridged: as §2
Test [7] concerns Italian ryegrass. The test can be described thus: Test Example 4: herbicidal effect by soil treatment (Table 19, symbol K). Format: in vivo, Italian ryegrass (Lolium multiflorum).
Source text: as §3, §4

Test [8] concerns windgrass. Briefly: Test Example 4: herbicidal effect by soil treatment (Table 19, symbol L). In kind it is in vivo, windgrass (Apera spica-venti). The following applies: amount of applied herbicide 320 g/ha.
Source text: as §3, §4

The test system of test [9] is velvetleaf. Briefly: Test Example 4: herbicidal effect by soil treatment (Table 19, symbol M). Format: in vivo, velvetleaf (Abutilon theophrasti). The procedure, abridged:
as §2

In test [10] the test system is redroot pigweed. The test can be described thus: Test Example 4: herbicidal effect by soil treatment (Table 19, symbol N). Format: in vivo, redroot pigweed (Amaranthus retroflexus). The procedure, abridged:
as §2

Test [11] deals with lambsquarters. The test can be described thus: Test Example 4: herbicidal effect by soil treatment (Table 19, symbol O). In kind it is in vivo, lambsquarters (Chenopodium album). The method in brief:
as §2

In test [12] the test system is chickweed. The test can be described thus: Test Example 4: herbicidal effect by soil treatment (Table 19, symbol P). In kind it is in vivo, common chickweed (Stellaria media).
Source text: as §3, §4

The subject of test [13] is southern crabgrass. Briefly: Test Example 5: herbicidal effect by foliage application, plastic box (Table 20, symbol F). Format: in vivo, southern crabgrass (Digitaria ciliaris). The conditions noted are these: foliage application, AAH 320 g/ha, evaluated three weeks after application. The procedure, abridged:
(§5)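 Post-emergence foliar test in sterilized diluvial soil. Compound applied as water-diluted emulsion at a predetermined rate to 14-day-old plants; evaluation at three weeks.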

Test [14] concerns green foxtail. Briefly: Test Example 5: herbicidal effect by foliage application, plastic box (Table 20, symbol G). The conditions noted are these: foliage application, AAH 320 g/ha, evaluated three weeks after application. In kind it is in vivo, green foxtail (Setaria viridis). The procedure, abridged:
as §5

Test [15] has as its system barnyard grass. The test can be described thus: Test Example 5: herbicidal effect by foliage application, plastic box (Table 20, symbol H). Format: in vivo, barnyard grass (Echinochloa crus-galli). The conditions noted are these: foliage application, AAH 320 g/ha, evaluated three weeks after application. The method in brief:
as §5

Test [16] has as its system wild oat. Briefly: Test Example 5: herbicidal effect by foliage application, plastic box (Table 20, symbol I). Format: in vivo, wild oat (Avena fatua). The conditions noted are these: foliage application, AAH 320 g/ha, evaluated three weeks after application. The procedure, abridged: as §5
Test [17] relates to blackgrass. The test can be described thus: Test Example 5: herbicidal effect by foliage application, plastic box (Table 20, symbol J). The following applies: foliage application, AAH 320 g/ha, evaluated three weeks after application. Format: in vivo, blackgrass (Alopecurus myosuroides). The method in brief: as §5
Test [18] deals with Italian ryegrass. The test can be described thus: Test Example 5: herbicidal effect by foliage application, plastic box (Table 20, symbol K). Format: in vivo, Italian ryegrass (Lolium multiflorum). The following applies: foliage application, AAH 320 g/ha, evaluated three weeks after application. The method in brief:
as §5

Test [19] deals with windgrass. Briefly: Test Example 5: herbicidal effect by foliage application, plastic box (Table 20, symbol L). Format: in vivo, windgrass (Apera spica-venti). The conditions noted are these: foliage application, AAH 320 g/ha, evaluated three weeks after application. The procedure, abridged: as §5
Test [20] relates to velvetleaf. The test can be described thus: Test Example 5: herbicidal effect by foliage application, plastic box (Table 20, symbol M). Format: in vivo, velvetleaf (Abutilon theophrasti). The following applies: foliage application, AAH 320 g/ha, evaluated three weeks after application. The procedure, abridged: as §5
Test [21] relates to redroot pigweed. Briefly: Test Example 5: herbicidal effect by foliage application, plastic box (Table 20, symbol N). The following applies: foliage application, AAH 320 g/ha, evaluated three weeks after application. In kind it is in vivo, redroot pigweed (Amaranthus retroflexus). The method in brief: as §5
Test [22] concerns lambsquarters. Briefly: Test Example 5: herbicidal effect by foliage application, plastic box (Table 20, symbol O). Format: in vivo, lambsquarters (Chenopodium album). The following applies: foliage application, AAH 320 g/ha, evaluated three weeks after application. The procedure, abridged: as §5
The test system of test [23] is chickweed. Briefly: Test Example 5: herbicidal effect by foliage application, plastic box (Table 20, symbol P). The conditions noted are these: foliage application, AAH 320 g/ha, evaluated three weeks after application. In kind it is in vivo, common chickweed (Stellaria media). The method in brief:
as §5

Test [24] deals with persian speedwell. Briefly: Test Example 5: herbicidal effect by foliage application, plastic box (Table 20, symbol R). In kind it is in vivo, Persian speedwell (Veronica persica). The following applies: foliage application, AAH 320 g/ha, evaluated three weeks after application. The procedure, abridged: as §5
In test [25] the test system is persian speedwell. The test can be described thus: Test Example 4: herbicidal effect by soil treatment (Table 19, symbol R). Format: in vivo, Persian speedwell (Veronica persica). The following applies: amount of applied herbicide 280 g/ha.
Source text: as §3, §4

The mark [26] stands for this setting: amount of applied herbicide 320 g/ha.
[27] abbreviates: amount of applied herbicide 280 g/ha.

As to `COCCSc1ccc(-c2sc3ccc(F)cc3c2-c2c(O)c(C)nn(C)c2=O)cc1` [2-265], the “herbicidal effect on H: barnyard grass” value with barnyard grass [1] (setting [26]) was 5 (Herbicidal rate of 90% or more (almost completely withered)); with barnyard grass [4] (setting [26]), 2 (Herbicidal rate of 20% or more and less than 40%). In addition, in the test on Chinese sprangletop (setting [26]), the “herbicidal effect on D: Chinese sprangletop” value was 4 (Herbicidal rate of 70% or more and less than 90%). Also, the “herbicidal effect on E: rice flat sedge” value with rice flat sedge (setting [26]) is recorded as 5 (Herbicidal rate of 90% or more (almost completely withered)). Moreover, in the test with southern crabgrass [2] (setting [26]), the “herbicidal effect on F: southern crabgrass” value was 3 (Herbicidal rate of 40% or more and less than 70%). For the same compound, the “herbicidal effect on G: green foxtail” value in the test with green foxtail [3] (setting [26]) is 4 (Herbicidal rate of 70% or more and less than 90%). Moreover, the “herbicidal effect on I: wild oat” value in the test on wild oat [5] (setting [26]) is listed as 0 (Herbicidal rate of 5% or less (almost no effect)). Besides, in the test on blackgrass [6] (setting [26]), the “herbicidal effect on J: blackgrass” value was 0 (Herbicidal rate of 5% or less (almost no effect)). In the test on Italian ryegrass [7] (setting [26]), the “herbicidal effect on K: Italian ryegrass” value is listed as 0 (Herbicidal rate of 5% or less (almost no effect)). The “herbicidal effect on L: windgrass” value in the test with windgrass [8] is given as 0 (Herbicidal rate of 5% or less (almost no effect)). The “herbicidal effect on M: velvetleaf” value in the test on velvetleaf [9] (setting [26]) is 3 (Herbicidal rate of 40% or more and less than 70%). Further, the “herbicidal effect on N: redroot pigweed” value with redroot pigweed [10] (setting [26]) is 5 (Herbicidal rate of 90% or more (almost completely withered)). Further, the “herbicidal effect on O: lambsquarters” value in the test on lambsquarters [11] (setting [26]) is 4 (Herbicidal rate of 70% or more and less than 90%). Moreover, the “herbicidal effect on P: chickweed” value in the test on chickweed [12] (setting [26]) is on record as 0 (Herbicidal rate of 5% or less (almost no effect)). Further, the “F: southern crabgrass, herbicidal effect (criteria 0-5)” value with southern crabgrass [13] was 4 (Herbicidal rate of 70% or more and less than 90%). Also, the “G: green foxtail, herbicidal effect (criteria 0-5)” value with green foxtail [14] was 5 (Herbicidal rate of 90% or more (almost completely withered)). In addition, in the test with barnyard grass [15], the “H: barnyard grass, herbicidal effect (criteria 0-5)” value was 4 (Herbicidal rate of 70% or more and less than 90%). In the test on wild oat [16], the “I: wild oat, herbicidal effect (criteria 0-5)” value is 3 (Herbicidal rate of 40% or more and less than 70%). Besides, in the test with blackgrass [17], the “J: blackgrass, herbicidal effect (criteria 0-5)” value is on record as 0 (Herbicidal rate of 5% or less (almost no effect)). For the same compound, the “K: Italian ryegrass, herbicidal effect (criteria 0-5)” value with Italian ryegrass [18] was 2 (Herbicidal rate of 20% or more and less than 40%). Besides, the “L: windgrass, herbicidal effect (criteria 0-5)” value in the test with windgrass [19] was 0 (Herbicidal rate of 5% or less (almost no effect)). The “M: velvetleaf, herbicidal effect (criteria 0-5)” value with velvetleaf [20] is 5 (Herbicidal rate of 90% or more (almost completely withered)). Also, in the test with redroot pigweed [21], the “N: redroot pigweed, herbicidal effect (criteria 0-5)” value is recorded as 5 (Herbicidal rate of 90% or more (almost completely withered)). Moreover, the “O: lambsquarters, herbicidal effect (criteria 0-5)” value in the test with lambsquarters [22] is 4 (Herbicidal rate of 70% or more and less than 90%). Moreover, in the test on chickweed [23], the “P: chickweed, herbicidal effect (criteria 0-5)” value was 5 (Herbicidal rate of 90% or more (almost completely withered)). The “R: persian speedwell, herbicidal effect (criteria 0-5)” value in the test with persian speedwell [24] is 5 (Herbicidal rate of 90% or more (almost completely withered)).
As for `COc1cccc(-c2sc3ccc(F)cc3c2-c2c(O)c(C)nn(C)c2=O)n1` [2-382], the “herbicidal effect on H: barnyard grass” value with barnyard grass [1] (setting [27]) was 0 (Herbicidal rate of 5% or less (almost no effect)). In addition, in the test with Chinese sprangletop (setting [27]), the “herbicidal effect on D: Chinese sprangletop” value is given as 0 (Herbicidal rate of 5% or less (almost no effect)). Further, the “herbicidal effect on E: rice flat sedge” value with rice flat sedge (setting [27]) is 3 (Herbicidal rate of 40% or more and less than 70%). The “herbicidal effect, F: southern crabgrass” value in the test on southern crabgrass [2] (setting [27]) is 0 (Herbicidal rate of 5% or less (almost no effect)). Moreover, the “herbicidal effect, G: green foxtail” value in the test on green foxtail [3] (setting [27]) is given as 0 (Herbicidal rate of 5% or less (almost no effect)). Besides, the “herbicidal effect, H: barnyard grass” value with barnyard grass [4] (setting [27]) was 1 (Herbicidal rate of 5% or more and less than 20%). The “herbicidal effect, I: wild oat” value with wild oat [5] (setting [27]) is reported as 0 (Herbicidal rate of 5% or less (almost no effect)). Further, the “herbicidal effect, J: blackgrass” value in the test with blackgrass [6] (setting [27]) is on record as 0 (Herbicidal rate of 5% or less (almost no effect)). Also, in the test with Italian ryegrass [7] (setting [27]), the “herbicidal effect, K: Italian ryegrass” value was 1 (Herbicidal rate of 5% or more and less than 20%). The “herbicidal effect, M: velvetleaf” value with velvetleaf [9] (setting [27]) was 1 (Herbicidal rate of 5% or more and less than 20%). Further, the “herbicidal effect, N: redroot pigweed” value in the test with redroot pigweed [10] (setting [27]) is 4 (Herbicidal rate of 70% or more and less than 90%). In addition, the “herbicidal effect, O: lambsquarters” value in the test on lambsquarters [11] (setting [27]) was 4 (Herbicidal rate of 70% or more and less than 90%). Besides, the “herbicidal effect, P: chickweed” value in the test with chickweed [12] (setting [27]) is 4 (Herbicidal rate of 70% or more and less than 90%). In addition, the “herbicidal effect, R: persian speedwell” value in the test on persian speedwell [25] was 4 (Herbicidal rate of 70% or more and less than 90%).
